Patent US20190292189A1, “LIM KINASE INHIBITORS” (VIRONGY, LLC, priority 2016, published 2019)

What was measured:
[1] = system: RVFV (rift valley fever virus); assay type: cell-based; conditions: Vero cells
FGFR1 = target: T1, FGFR1 (Homo sapiens, UniProt P11362); assay: Kinase profiling at 1 μM (Reaction Biology); assay type: biochemical; conditions: ATP 10 μM
T1 construct: purchased Reaction Biology Corporation
In short: (§1)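 Compounds were screened at a single concentration of 1 μM against each kinase with ATP held at 10 μM. Values are percentages averaged from two determinations, with staurosporine run as the positive control.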

TAOK1 = target: T2, TAOK1 (Homo sapiens, UniProt Q7L7X3); assay: Kinase profiling at 1 μM (Reaction Biology); assay type: biochemical; conditions: ATP 10 μM
T2 construct: purchased Reaction Biology Corporation
In short: as §1

R5K1 = target: T3, R5K1 (Homo sapiens, UniProt Q15418); assay: Kinase profiling at 1 μM (Reaction Biology); assay type: biochemical; conditions: ATP 10 μM
T3 construct: purchased Reaction Biology Corporation
In short: as §1

TBK1 = target: T4, TBK1 (Homo sapiens, UniProt Q9UHD2); assay: Kinase profiling at 1 μM (Reaction Biology); assay type: biochemical; conditions: ATP 10 μM
T4 construct: purchased Reaction Biology Corporation
T4 sequence (Q9UHD2 whole entry): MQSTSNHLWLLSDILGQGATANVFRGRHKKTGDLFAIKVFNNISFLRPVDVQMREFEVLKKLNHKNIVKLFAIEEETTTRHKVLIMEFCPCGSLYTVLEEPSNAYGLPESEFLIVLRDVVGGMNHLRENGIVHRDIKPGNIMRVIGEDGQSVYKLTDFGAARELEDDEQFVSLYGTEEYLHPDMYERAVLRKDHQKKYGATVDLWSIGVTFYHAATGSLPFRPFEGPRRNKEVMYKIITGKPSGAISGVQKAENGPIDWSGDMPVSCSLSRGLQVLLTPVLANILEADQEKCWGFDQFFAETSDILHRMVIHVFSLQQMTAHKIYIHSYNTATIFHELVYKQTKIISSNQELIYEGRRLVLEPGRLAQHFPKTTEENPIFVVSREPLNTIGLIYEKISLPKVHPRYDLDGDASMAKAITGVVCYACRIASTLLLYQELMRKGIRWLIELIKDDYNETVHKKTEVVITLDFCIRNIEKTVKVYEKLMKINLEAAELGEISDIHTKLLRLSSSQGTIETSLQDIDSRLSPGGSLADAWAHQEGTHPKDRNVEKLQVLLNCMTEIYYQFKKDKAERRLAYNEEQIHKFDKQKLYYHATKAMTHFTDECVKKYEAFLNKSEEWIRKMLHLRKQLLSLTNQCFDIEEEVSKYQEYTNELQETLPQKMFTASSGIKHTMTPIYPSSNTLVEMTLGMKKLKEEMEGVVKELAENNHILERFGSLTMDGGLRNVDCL
In short: as §1

ZIPK/DAPK3 = target: T5, ZIPK/DAPK3 (Homo sapiens, UniProt O43293); assay: Kinase profiling at 1 μM (Reaction Biology); assay type: biochemical; conditions: ATP 10 μM
T5 construct: purchased Reaction Biology Corporation
T5 sequence (O43293 whole entry): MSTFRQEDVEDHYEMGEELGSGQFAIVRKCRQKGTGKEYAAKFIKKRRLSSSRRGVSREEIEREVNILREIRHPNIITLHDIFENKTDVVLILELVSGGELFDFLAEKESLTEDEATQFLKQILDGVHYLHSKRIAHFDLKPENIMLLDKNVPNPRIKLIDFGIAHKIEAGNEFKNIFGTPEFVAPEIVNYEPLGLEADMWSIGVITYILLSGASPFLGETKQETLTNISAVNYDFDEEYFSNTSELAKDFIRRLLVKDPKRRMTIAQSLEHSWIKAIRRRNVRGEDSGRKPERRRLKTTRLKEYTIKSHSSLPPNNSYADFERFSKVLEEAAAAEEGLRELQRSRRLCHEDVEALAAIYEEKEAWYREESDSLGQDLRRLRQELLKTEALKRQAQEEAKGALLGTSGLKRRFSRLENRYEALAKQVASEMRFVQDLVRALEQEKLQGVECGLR
In short: as §1

ABL1 = target: T6, ABL1 (Homo sapiens, UniProt P00519); assay: Kinase profiling at 1 μM (Reaction Biology); assay type: biochemical; conditions: ATP 10 μM
T6 construct: purchased Reaction Biology Corporation
In short: as §1

TAK1 = target: T7, TAK1 (Homo sapiens, UniProt O43318); assay: Kinase profiling at 1 μM (Reaction Biology); assay type: biochemical; conditions: ATP 10 μM
T7 construct: purchased Reaction Biology Corporation
T7 sequence (O43318 1-303 limits assumed): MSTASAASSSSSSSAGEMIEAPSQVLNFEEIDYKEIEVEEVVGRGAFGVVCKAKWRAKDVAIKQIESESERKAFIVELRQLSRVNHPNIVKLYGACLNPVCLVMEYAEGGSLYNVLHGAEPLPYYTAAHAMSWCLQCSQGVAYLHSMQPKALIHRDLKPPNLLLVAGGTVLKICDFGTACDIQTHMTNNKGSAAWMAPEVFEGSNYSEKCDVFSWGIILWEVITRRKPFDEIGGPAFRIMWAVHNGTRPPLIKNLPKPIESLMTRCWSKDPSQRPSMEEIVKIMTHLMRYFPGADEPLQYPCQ
In short: as §1

G5K3b = target: T8, G5K3b (Homo sapiens, UniProt P49841); assay: Kinase profiling at 1 μM (Reaction Biology); assay type: biochemical; conditions: ATP 10 μM
T8 construct: purchased Reaction Biology Corporation
In short: as §1

c-5rc = target: T9, c-5rc (Homo sapiens, UniProt P12931); assay: Kinase profiling at 1 μM (Reaction Biology); assay type: biochemical; conditions: ATP 10 μM
T9 construct: purchased Reaction Biology Corporation
In short: as §1

CDK5/p35 = target: T10, CDK5/p35 (Homo sapiens, UniProt Q00535); assay: Kinase profiling at 1 μM (Reaction Biology); assay type: biochemical; conditions: ATP 10 μM
T10 construct: purchased Reaction Biology Corporation
T10 sequence (Q00535 whole entry): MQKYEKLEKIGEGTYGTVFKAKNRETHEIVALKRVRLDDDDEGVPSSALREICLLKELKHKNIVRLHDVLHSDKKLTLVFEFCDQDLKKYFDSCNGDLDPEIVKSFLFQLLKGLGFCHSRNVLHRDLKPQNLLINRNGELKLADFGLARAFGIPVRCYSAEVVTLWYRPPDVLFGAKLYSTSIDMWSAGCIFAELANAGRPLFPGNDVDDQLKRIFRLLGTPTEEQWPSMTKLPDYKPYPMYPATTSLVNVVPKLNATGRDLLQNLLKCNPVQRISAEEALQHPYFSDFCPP
T10 sequence (Q15078 whole entry partner): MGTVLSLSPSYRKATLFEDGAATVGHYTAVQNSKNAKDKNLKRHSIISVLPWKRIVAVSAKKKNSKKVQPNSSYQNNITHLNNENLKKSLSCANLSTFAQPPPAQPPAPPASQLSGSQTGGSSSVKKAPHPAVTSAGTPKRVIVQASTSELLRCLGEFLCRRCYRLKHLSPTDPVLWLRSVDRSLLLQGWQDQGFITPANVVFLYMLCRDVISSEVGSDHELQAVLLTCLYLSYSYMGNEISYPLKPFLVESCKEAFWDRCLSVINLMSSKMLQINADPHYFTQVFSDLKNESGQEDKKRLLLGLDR
In short: as §1

CK2a = target: T11, CK2a (Homo sapiens, UniProt P68400); assay: Kinase profiling at 1 μM (Reaction Biology); assay type: biochemical; conditions: ATP 10 μM
T11 construct: purchased Reaction Biology Corporation
In short: as §1

FAK/PTK2 = target: T12, FAK/PTK2 (Homo sapiens, UniProt Q05397); assay: Kinase profiling at 1 μM (Reaction Biology); assay type: biochemical; conditions: ATP 10 μM
T12 construct: purchased Reaction Biology Corporation
In short: as §1

JAK3 = target: T13, JAK3 (Homo sapiens, UniProt P52333); assay: Kinase profiling at 1 μM (Reaction Biology); assay type: biochemical; conditions: ATP 10 μM
T13 construct: purchased Reaction Biology Corporation
T13 sequence (P52333 whole entry): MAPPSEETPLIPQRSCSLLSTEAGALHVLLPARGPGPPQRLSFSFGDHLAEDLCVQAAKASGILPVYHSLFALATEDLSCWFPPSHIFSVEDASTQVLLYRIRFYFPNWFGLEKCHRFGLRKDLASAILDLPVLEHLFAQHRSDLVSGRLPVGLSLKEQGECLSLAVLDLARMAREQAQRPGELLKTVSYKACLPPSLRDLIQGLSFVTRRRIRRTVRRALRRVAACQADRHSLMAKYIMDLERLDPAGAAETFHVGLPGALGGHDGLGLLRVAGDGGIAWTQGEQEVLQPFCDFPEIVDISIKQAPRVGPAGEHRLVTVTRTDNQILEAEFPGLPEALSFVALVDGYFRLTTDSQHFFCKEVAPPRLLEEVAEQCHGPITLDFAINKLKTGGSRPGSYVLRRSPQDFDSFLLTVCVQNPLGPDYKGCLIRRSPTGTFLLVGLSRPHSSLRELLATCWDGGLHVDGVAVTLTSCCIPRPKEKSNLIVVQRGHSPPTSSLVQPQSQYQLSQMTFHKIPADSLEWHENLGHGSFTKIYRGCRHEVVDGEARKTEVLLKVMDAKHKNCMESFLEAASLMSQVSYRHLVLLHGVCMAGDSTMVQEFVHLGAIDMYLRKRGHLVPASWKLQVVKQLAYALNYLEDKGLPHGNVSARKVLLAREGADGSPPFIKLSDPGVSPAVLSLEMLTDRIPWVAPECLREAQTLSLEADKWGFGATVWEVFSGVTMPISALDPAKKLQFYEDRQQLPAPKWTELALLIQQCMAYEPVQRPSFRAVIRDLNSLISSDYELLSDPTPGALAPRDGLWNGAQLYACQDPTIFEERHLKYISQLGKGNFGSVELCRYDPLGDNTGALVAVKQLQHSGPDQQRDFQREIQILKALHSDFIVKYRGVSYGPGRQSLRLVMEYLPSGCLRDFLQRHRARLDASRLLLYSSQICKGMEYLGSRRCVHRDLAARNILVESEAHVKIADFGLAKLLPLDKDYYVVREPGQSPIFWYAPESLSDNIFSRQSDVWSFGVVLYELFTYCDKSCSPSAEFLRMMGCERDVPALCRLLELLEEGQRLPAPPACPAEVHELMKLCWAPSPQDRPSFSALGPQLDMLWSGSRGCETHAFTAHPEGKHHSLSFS
In short: as §1

EPHA3 = target: T14, EPHA3 (Homo sapiens, UniProt P29320); assay: Kinase profiling at 1 μM (Reaction Biology); assay type: biochemical; conditions: ATP 10 μM
T14 construct: purchased Reaction Biology Corporation
In short: as §1

AKT2 = target: T15, AKT2 (Homo sapiens, UniProt P31751); assay: Kinase profiling at 1 μM (Reaction Biology); assay type: biochemical; conditions: ATP 10 μM
T15 construct: purchased Reaction Biology Corporation
T15 sequence (P31751 whole entry): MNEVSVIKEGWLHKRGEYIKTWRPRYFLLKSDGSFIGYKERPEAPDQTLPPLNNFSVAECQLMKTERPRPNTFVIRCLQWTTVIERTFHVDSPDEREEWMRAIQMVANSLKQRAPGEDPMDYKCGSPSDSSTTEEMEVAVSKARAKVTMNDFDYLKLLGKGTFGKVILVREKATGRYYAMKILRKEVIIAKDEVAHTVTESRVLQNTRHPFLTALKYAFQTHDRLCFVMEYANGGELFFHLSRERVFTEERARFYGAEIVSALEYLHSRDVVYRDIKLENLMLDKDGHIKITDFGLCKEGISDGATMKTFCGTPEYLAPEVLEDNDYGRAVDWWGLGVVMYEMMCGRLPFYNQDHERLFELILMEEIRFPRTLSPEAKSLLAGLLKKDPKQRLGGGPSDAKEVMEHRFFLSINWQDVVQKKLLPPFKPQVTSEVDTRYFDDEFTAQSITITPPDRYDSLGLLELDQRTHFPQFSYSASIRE
In short: as §1

[2] = system: single-cycle HIV-1(Env) in CEM-SS T cells; assay: Viral 2-LTR circles, real-time PCR; assay type: cell-based
[3] = system: surface CD4 and CXCR4 on CEM-SS T cells; assay: Surface staining of CD4 and CXCR4; assay type: cell-based, human
Description: FIG. 11. R10015 inhibits HIV-1 DNA synthesis, nuclear migration, and virion release. a, Effects of R10015 on surface CD4 and CXCR4 expression. […] CEM-SS T cells were treated with R10015, and then infected with BlaM-Vpr tagged HIV-1(NL4-3) or HIV-1(VSV-G) to measure viral entry. c. R10015 inhibits viral DNA synthesis. CEM-SS T cells were treated with R10015 for 1 hour, and then infected with a single-cycle HIV-1(Env) for 2 hours in the presence of R10015. Following infection, cells were washed to remove HIV-1 and R10015. Viral DNA synthesis was measured by real-time PCR. d. R10015 inhibits 2-LTR circle DNA formation. Cells were similar treated with R10015 and infected. 2-TLR circles were quantified by real-time PCR. e. R10015 inhibits virion release. Cells were infected with HIV-1(Env) for 2 hours, washed, incubated for 12 hours, and then treated with R10015. Virion release was quantified by measuring p24 in the supernatant.
Cells were stained with FITC-labeled monoclonal antibody against human CD4 (clone PRA-T4) or CXCR4 (clone 12G5) (BD Biosciences). Cells were stained on ice in PBS+0.1% BSA for 30 minutes, washed with cold PBS-0.5% BSA, and then analyzed on a FACSCalibur (BD Biosciences).

ROCK-I = ROCK-I (Homo sapiens, UniProt Q13464); assay: ROCK-I biochemical counter-screen; conditions: Table 6; read-out: Biochemical Inhibition IC50 (nM) ROCK-I
ROCK-I, sequence (Q13464 whole entry, species assumed): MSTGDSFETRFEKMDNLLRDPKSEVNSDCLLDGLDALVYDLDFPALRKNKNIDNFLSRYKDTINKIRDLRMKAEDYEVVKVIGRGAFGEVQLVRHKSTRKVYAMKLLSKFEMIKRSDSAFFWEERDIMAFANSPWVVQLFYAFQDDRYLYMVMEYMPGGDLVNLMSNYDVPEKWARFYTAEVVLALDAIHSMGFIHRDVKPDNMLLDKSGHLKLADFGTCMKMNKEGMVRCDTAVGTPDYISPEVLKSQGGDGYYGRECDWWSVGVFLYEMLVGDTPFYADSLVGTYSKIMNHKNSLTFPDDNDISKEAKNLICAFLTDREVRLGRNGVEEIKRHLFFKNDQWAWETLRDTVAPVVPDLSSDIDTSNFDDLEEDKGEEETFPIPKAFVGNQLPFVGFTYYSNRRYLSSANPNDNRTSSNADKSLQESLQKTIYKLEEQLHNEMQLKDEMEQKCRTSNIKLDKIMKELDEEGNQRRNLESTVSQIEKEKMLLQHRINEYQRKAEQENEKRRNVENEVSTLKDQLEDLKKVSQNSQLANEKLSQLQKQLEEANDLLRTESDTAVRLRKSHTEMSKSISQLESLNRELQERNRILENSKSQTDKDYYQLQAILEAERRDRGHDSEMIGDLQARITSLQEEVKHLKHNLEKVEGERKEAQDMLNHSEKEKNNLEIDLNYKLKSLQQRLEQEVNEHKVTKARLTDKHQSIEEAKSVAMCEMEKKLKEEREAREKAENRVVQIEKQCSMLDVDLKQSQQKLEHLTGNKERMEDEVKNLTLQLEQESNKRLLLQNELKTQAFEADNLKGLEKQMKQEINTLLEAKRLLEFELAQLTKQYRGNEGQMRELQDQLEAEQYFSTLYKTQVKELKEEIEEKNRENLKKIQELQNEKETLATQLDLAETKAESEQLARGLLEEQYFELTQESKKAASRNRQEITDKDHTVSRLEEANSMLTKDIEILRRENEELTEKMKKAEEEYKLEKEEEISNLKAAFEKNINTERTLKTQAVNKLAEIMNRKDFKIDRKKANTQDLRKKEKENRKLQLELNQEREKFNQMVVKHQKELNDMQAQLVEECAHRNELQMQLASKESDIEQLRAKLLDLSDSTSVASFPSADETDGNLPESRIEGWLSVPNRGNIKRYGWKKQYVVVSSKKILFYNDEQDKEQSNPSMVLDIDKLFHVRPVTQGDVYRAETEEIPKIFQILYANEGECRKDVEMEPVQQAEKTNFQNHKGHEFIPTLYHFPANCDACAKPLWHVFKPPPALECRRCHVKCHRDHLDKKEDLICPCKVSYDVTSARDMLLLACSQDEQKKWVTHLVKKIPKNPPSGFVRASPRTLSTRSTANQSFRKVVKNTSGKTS

P450 2D6 = P450 2D6 (Homo sapiens, UniProt P10635); assay: P450 inhibition at 10 μM; assay type: in vitro ADME
[4] = Plasma pharmacokinetics studies on rats; conditions: rats
Description: In vivo pharmacokinetics (PK) studies were conducted for selected compounds during the whole optimization at various stages in order to identify structural elements that are favorable for in vivo applications, and/or to evaluate the feasibility of optimized Limk inhibitors for animal studies.

P450 1A2 = target: T16, P450 1A2 (Homo sapiens, UniProt P05177)
T16 sequence (P05177 1-516): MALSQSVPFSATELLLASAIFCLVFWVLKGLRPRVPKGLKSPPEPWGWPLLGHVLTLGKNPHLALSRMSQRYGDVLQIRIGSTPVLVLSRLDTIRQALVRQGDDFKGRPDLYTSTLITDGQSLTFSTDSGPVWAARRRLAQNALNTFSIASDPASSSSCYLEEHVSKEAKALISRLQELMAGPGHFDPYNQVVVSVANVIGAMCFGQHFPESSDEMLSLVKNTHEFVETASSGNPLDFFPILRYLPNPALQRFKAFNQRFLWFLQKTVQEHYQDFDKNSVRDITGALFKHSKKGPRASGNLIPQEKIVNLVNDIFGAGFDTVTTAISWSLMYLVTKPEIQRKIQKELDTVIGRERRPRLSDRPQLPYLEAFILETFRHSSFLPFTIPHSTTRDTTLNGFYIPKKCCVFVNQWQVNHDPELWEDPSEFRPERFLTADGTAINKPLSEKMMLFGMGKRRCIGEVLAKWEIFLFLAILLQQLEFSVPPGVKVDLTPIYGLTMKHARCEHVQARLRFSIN

**Q.** Which results are given for COC(=O)c1ccc2[nH]c(C3CCN(c4ncnc5[nH]cc(Cl)c45)CC3)nc2c1 [Compound R10015, Methyl 2-(1-(5-chloro-7H-pyrrolo[2,3-d]pyrimidin-4-yl)piperidin-4-yl)-1Hbenzo[d]imidazole-5-carboxylate]?
**A.** RVFV infection [1]: inhibited; activity at 1 µM (FGFR1): 86.5%; activity at 1 µM (TAOK1): 54%; activity at 1 µM (R5K1): 47.2%; activity at 1 µM (TBK1): 82%; activity at 1 µM (ZIPK/DAPK3): 98.5%; activity at 1 µM (ABL1): 89.2%; activity at 1 µM (TAK1): 82.4%; activity at 1 µM (G5K3b): 67.8%; activity at 1 µM (c-5rc): 92.4%; activity at 1 µM (CDK5/p35): 85.5%; activity at 1 µM (CK2a): 94.2%; activity at 1 µM (FAK/PTK2): 81.5%; activity at 1 µM (JAK3): 61.1%; activity at 1 µM (EPHA3): 91.1%; activity at 1 µM (AKT2): 73.1%; viral nuclear migration (2-LTR circles) [2]: inhibited; surface expression of CD4 and CXCR4 ([3]; 1 hour treatment): did not alter; surface density of CD4 ([3]; prolonged treatment (4 hours)): slightly decreased

**Q.** What does the source list for Cc1c[nH]c2ncnc(-c3ccc(NC(=O)N(CCO)c4ccccc4)cc3)c12 [Compound 18b, 1-(2-Hydroxyethyl)-3-(4-(5-methyl-7H-pyrrolo[2,3-d]pyrimidin-4-yl)phenyl)-1-phenylurea]?
**A.** IC50 (ROCK-I): 5540 nM; P450 % inh. at 10 μM 2D6 (P450 2D6): 5%; AUC (iv) ([4]; iv dosing 1 mg/kg): 8.4 µM·h; Cl (iv) ([4]; iv dosing 1 mg/kg): 5.2 mL/min/kg; T1/2 (iv) ([4]; iv dosing 1 mg/kg): 2.2 h; Yd (iv) ([4]; iv dosing 1 mg/kg): 0.4 L/kg; F (%) (po) ([4]; po dosing 2 mg/kg): 36%; Cmax ([4]; read-out: Cmax (iv), iv dosing 1 mg/kg): 7.7 µM; P450 % inh. at 10 μM 1A2 (P450 1A2): −16/14/5/13%
